Data from patent US6914045B2, “Glycopeptide antibiotics” (Wyeth Holdings Corporation, priority 2001, dated 2005).
≈ marks a conversion by molar mass, not a printed value. Like-named read-outs stand apart in the source and are kept apart here.

Assays:
[1] = test system: Enterococcus sp.; test: in vitro antibacterial evaluation, MIC by broth dilution; format: cell-based; details: broth dilution, 18 hours at 35° C.
Method in brief: (§1)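 MIC = lowest antibiotic concentration preventing visible growth; inoculum 5×10^5 CFU/mL; drug range 64-0.06 μg/mL; Muller-Hinton II […]; NCCLS M7-A2 guidance.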

[2] = test system: Escherichia coli; test: as above; format: cell-based; details: 18 hours at 35° C.
Method in brief: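 Broth dilution per NCCLS standard M7-A2 in Muller-Hinton II […], with an inoculum of 5×10^5 CFU/mL and antibiotic spanning 64-0.06 μg/mL. The MIC is the lowest concentration that inhibits growth of the organism.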

[3] = test system: Staphylococcus sp.; test: as above; format: cell-based; details: broth dilution, 18 hours at 35° C.
Method in brief: as §1

[4] = test system: Streptococcus sp.; test: as above; format: cell-based; details: broth dilution, 18 hours at 35° C.
Method in brief: as §1

[5] = test system: Staphylococcus aureus-SMITH (GC 4543); test: acute lethal infection in mice; format: in vivo; details: Staphylococcus, read-out: median effective dose (ED50), Staphylococcus aureus-SMITH (GC 4543)
Method in brief: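 Female CD-1 mice (20±2 g) got an intraperitoneal bacterial challenge lethal to untreated controls within 24–48 hr. Compound was dosed intravenously 30 min after infection, five mice per dose. ED50 was calculated from 7-day survival pooled across 3 tests.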

[6] = anatomic pathology (histopathology of heart and kidney) in mice; format: in vivo; details: CD-1 mice, 20 mg/kg intravenously daily for 9 days, necropsy day 10, microscopic histopathology
Procedure: Samples of tissues from necropsied mice were formalin-fixed, paraffin-embedded, sectioned, stained with hematoxylin and eosin, and examined microscopically. Histopathologic findings were recorded. These findings were subjectively graded on a scale corresponding to slight, mild, moderate, marked and severe as compared to untreated controls.

[7] = test system: Gram-positive bacteria comprised of Staphylococcus sp., Streptococcus sp. and Enterococcus sp.; test: in vitro antibacterial evaluation, MIC by broth dilution (strain not given); format: cell-based
Procedure: Methods for in vitro Antibacterial Evaluation (Table 1)
The minimum inhibitory concentration (MIC), the lowest concentration of the antibiotic which inhibits growth of the test organism, is determined by the broth dilution method using Muller-Hinton II […] (Baltimore Biological Laboratories) following the recommendations of the National Committee for Clinical Laboratory Standards [Methods for dilution antimicrobial susceptibility tests for bacteria that grow aerobically, approved standard M7-A2, National Committee for Clinical Laboratory Standards, Villanova, Pa.].
An inoculum level of 5×10^5 CFU/mL, and a range of antibiotic concentrations (64-0.06 μg/mL) is used. […] The test organisms include a spectrum of Gram-positive bacteria comprised of Staphylococcus sp., Streptococcus sp. and Enterococcus sp. These organisms include recent clinical isolates that are resistant to methicillin, penicillin and/or vancomycin.

N=C1NCC(C(O)C2NC(=O)[C@H](C(O)C3CNC(=N)N3)NC(=O)C(Cc3ccc(O)cc3)NC(=O)[C@H](Cc3ccccc3)NC(=O)CNC(=O)[C@H](CO)NC2=O)N1 (stereo in doubt) [Example 280a, Cyclo[glycylphenylalanyltyrosyl-3-(2-iminoimidazolidin-4-yl)seryl-3-(2-iminoimidazolidin-4-yl)serylseryl]]
MIC ([1]; Enterococcus avium (GC 4558), read-out: MIC, Enterococcus avium (GC 4558)): > 128 µg/mL
MIC ([1]; Enterococcus faecalis (ATCC 29212), read-out: MIC, Enterococcus faecalis (ATCC 29212)): > 128 µg/mL
MIC ([1]; Enterococcus faecalis (GC 4553), read-out: MIC, Enterococcus faecalis (GC 4553)): > 128 µg/mL
MIC ([1]; Enterococcus faecalis (GC 4554), read-out: MIC, Enterococcus faecalis (GC 4554)): > 128 µg/mL
MIC ([1]; Enterococcus faecalis (GC 6189), read-out: MIC, Enterococcus faecalis (GC 6189)): > 128 µg/mL
MIC ([1]; Enterococcus faecium (GC 2243), read-out: MIC, Enterococcus faecium (GC 2243)): > 128 µg/mL
MIC ([1]; Enterococcus faecium (GC 4556), read-out: MIC, Enterococcus faecium (GC 4556)): > 128 µg/mL
MIC ([1]; Enterococcus faecium (GC 4557), read-out: MIC, Enterococcus faecium (GC 4557)): > 128 µg/mL
MIC ([1]; strain ATCC 29212, read-out: MIC Enterococcus faecalis (ATCC 29212)): > 128 µg/mL
MIC ([1]; strain GC 2242, read-out: MIC Enterococcus faecalis (GC 2242)): > 128 µg/mL
MIC ([1]; strain GC 2243, read-out: MIC Enterococcus faecium (GC 2243)): > 128 µg/mL
MIC ([1]; strain GC 2691, read-out: MIC Enterococcus faecalis (GC 2691)): > 128 µg/mL
MIC ([1]; strain GC 3059, read-out: MIC Enterococcus faecalis (GC 3059)): > 128 µg/mL
MIC ([1]; strain GC 4552, read-out: MIC Enterococcus faecalis (GC 4552)): > 128 µg/mL
MIC ([1]; strain GC 4553, read-out: MIC Enterococcus faecalis (GC 4553)): > 128 µg/mL
MIC ([1]; strain GC 4554, read-out: MIC Enterococcus faecalis (GC 4554)): > 128 µg/mL
MIC ([1]; strain GC 4556, read-out: MIC Enterococcus faecium (GC 4556)): > 128 µg/mL
MIC ([1]; strain GC 4557, read-out: MIC Enterococcus faecium (GC 4557)): > 128 µg/mL
MIC ([1]; strain GC 4558, read-out: MIC Enterococcus avium (GC 4558)): > 128 µg/mL
MIC ([1]; strain GC 6189, read-out: MIC Enterococcus faecalis (GC 6189)): > 128 µg/mL
MIC ([2]; ATCC25922, Escherichia coli (ATCC 25922), read-out: MIC, Escherichia coli (ATCC 25922)): 128 µg/mL (≈ 161 µM)
MIC ([2]; Escherichia coli (GC 4559), read-out: MIC, Escherichia coli (GC 4559)): 64 µg/mL (≈ 80.5 µM)
MIC ([2]; Escherichia coli (GC 4560), read-out: MIC, Escherichia coli (GC 4560)): 64 µg/mL (≈ 80.5 µM)
MIC ([3]; Staphylococcus, read-out: MIC Coagulase Negative Staphylococcus (GC 4547)): 128 µg/mL (≈ 161 µM)
MIC ([3]; Staphylococcus, read-out: MIC Coagulase Negative Staphylococcus (GC 4548)): > 128 µg/mL
MIC ([3]; Staphylococcus, read-out: MIC Coagulase Negative Staphylococcus (GC 4549)): 128 µg/mL (≈ 161 µM)
MIC ([3]; Staphylococcus, read-out: MIC Coagulase Negative Staphylococcus (GC 4551)): > 128 µg/mL
MIC ([3]; Staphylococcus, read-out: MIC Coagulase Negative Staphylococcus (GC 6257)): 128 µg/mL (≈ 161 µM)
MIC ([3]; Staphylococcus, read-out: MIC Staphylococcus aureus-SMITH (GC 4543)): > 128 µg/mL
MIC ([3]; read-out: MIC Staphylococcus aureus (ATCC 29213)): > 128 µg/mL
MIC ([3]; read-out: MIC Staphylococcus aureus (GC 1131)): > 128 µg/mL
MIC ([3]; read-out: MIC Staphylococcus aureus (GC 3051)): > 128 µg/mL
MIC ([3]; read-out: MIC Staphylococcus aureus (GC 3053)): > 128 µg/mL
MIC ([3]; read-out: MIC Staphylococcus aureus (GC 4541)): > 128 µg/mL
MIC ([3]; read-out: MIC Staphylococcus aureus (GC 4542)): > 128 µg/mL
MIC ([3]; read-out: MIC Staphylococcus aureus (GC 4544)): > 128 µg/mL
MIC ([3]; read-out: MIC Staphylococcus aureus (GC 4545)): > 128 µg/mL
MIC ([3]; read-out: MIC Staphylococcus haemolyticus (GC 4546)): 128 µg/mL (≈ 161 µM)
MIC Staphylococcus aureus (ATCC 29213) ([3]; strain ATCC 29213): >128 µg/mL
MIC Staphylococcus aureus (GC 1131) ([3]; strain GC 1131): >128 µg/mL
MIC Staphylococcus aureus (GC 3051) ([3]; strain GC 3051): >128 µg/mL
MIC Staphylococcus aureus (GC 3053) ([3]; strain GC 3053): >128 µg/mL
MIC Staphylococcus aureus (GC 4541) ([3]; strain GC 4541): >128 µg/mL
MIC Staphylococcus aureus (GC 4542) ([3]; strain GC 4542): >128 µg/mL
MIC Staphylococcus aureus (GC 4544) ([3]; strain GC 4544): >128 µg/mL
MIC Staphylococcus aureus (GC 4545) ([3]; strain GC 4545): >128 µg/mL
MIC Staphylococcus haemolyticus (GC 4546) ([3]; strain GC 4546): 128 µg/mL (≈ 161 µM)
MIC Coagulase Negative Staphylococcus (GC 4547) ([3]; strain GC 4547): 128 µg/mL (≈ 161 µM)
MIC Coagulase Negative Staphylococcus (GC 4548) ([3]; strain GC 4548): >128 µg/mL
MIC Coagulase Negative Staphylococcus (GC 4549) ([3]; strain GC 4549): 128 µg/mL (≈ 161 µM)
MIC Coagulase Negative Staphylococcus (GC 4551) ([3]; strain GC 4551): >128 µg/mL
MIC Coagulase Negative Staphylococcus (GC 6257) ([3]; strain GC 6257): 128 µg/mL (≈ 161 µM)
MIC Staphylococcus aureus-SMITH (GC 4543) ([3]; strain SMITH GC 4543): >128 µg/mL
MIC ([4]; strain ATCC 6301, read-out: MIC Streptococcus pneumoniae (ATCC 6301)): > 128 µg/mL
MIC ([4]; strain GC 1894, read-out: MIC Streptococcus pneumoniae (GC 1894)): 128 µg/mL (≈ 161 µM)
MIC ([4]; strain GC 4563, read-out: MIC Streptococcus pyogenes (GC 4563)): > 128 µg/mL
MIC ([4]; strain GC 4564, read-out: MIC Streptococcus agalactiae (GC 4564)): > 128 µg/mL
MIC ([4]; strain GC 4565, read-out: MIC Streptococcus pneumoniae (GC 4565)): > 128 µg/mL
ED50 [5]: > 8 mg/kg
Anatomical Pathology (Day 10), Heart [6]: 0
Anatomical Pathology (Day 10), Kidney [6]: ++
MIC ([7]; Table 2 section r2574-r2600, column 1, 18 hours at 35° C., read-out: MIC, strain of column 1): > 128 µg/mL
MIC ([7]; Table 2 section r2574-r2600, column 2, 18 hours at 35° C., read-out: MIC, strain of column 2): 128 µg/mL (≈ 161 µM)
MIC ([7]; Table 2 section r2574-r2600, column 3, 18 hours at 35° C., read-out: MIC, strain not given): > 128 µg/mL
MIC ([7]; Table 2 section r2574-r2600, column 5, 18 hours at 35° C., read-out: MIC, strain of column 5): > 128 µg/mL
MIC ([7]; Table 2 section r2574-r2600, column 7, 18 hours at 35° C., read-out: MIC, strain not given): > 128 µg/mL
MIC ([7]; Table 2 section r2574-r2600, column 9, 18 hours at 35° C., read-out: MIC, strain of column 9): > 128 µg/mL
MIC ([7]; Table 2 section r2574-r2600, column 10, 18 hours at 35° C., read-out: MIC, strain of column 10): > 128 µg/mL
